# Where two headings read alike, the source gives them in different places.
# Experiments:
# Aspergillus flavus = assay: In vitro antifungal activity (MIC), agar dilution; type: cell-based
# Experimental: (§1) The antifungal activity of 1-[(2-fluorophenyl)(4-fluorophenyl)phenylmethyl]-1H-imidazole was shown by its ability to inhibit the growth of different species of yeast and filamentous fungi in vitro. The activity was recorded as the MIC value, that is, the minimum amount of product needed to achieve the complete inhibition of the in vitro growth of the test organism. Testing was performed as follows: a solution of the antifungal agent in ethanol was diluted with DST agar (pH 6.5) or Emmon's Sabouraud dextrose agar to obtain concentrations between 10 and 0.01 mcg/ml, or 80 and 0.16 mcg/m, respectively. The inoculum was standarized in order 1×10^5 cfu/ml, and 10 mcl of each organism was seeded into the agar surface. Incubation was then allowed at 30° C. during 3 days (DST) or 2 days (Emmon's) for yeasts and 10 days for filamentous fungi. Following incubation, the zones of inhibition were measured and compared to an inoculated, drug-free control to yield the MIC value.
# T. glabrata (clinica) = assay: In vitro antifungal activity (MIC), agar dilution; type: cell-based; conditions: Nakaseomyces glabratus
# Experimental: as §1
# Aspergillus niger = assay: In vitro antifungal activity (MIC), agar dilution; type: cell-based
# Experimental: as §1
# [1] = test system: T. mentagrophytes (clinica) (4); assay: In vitro antifungal activity (MIC), agar dilution; type: cell-based; conditions: Trichophyton mentagrophytes
# Experimental: as §1
# [2] = test system: T. mentagrophytes (clinica) (2); assay: In vitro antifungal activity (MIC), agar dilution; type: cell-based; conditions: Trichophyton mentagrophytes
# Experimental: as §1
# [3] = test system: C. pseudotropicalis ATCC 28838; assay: In vitro antifungal activity (MIC), agar dilution; type: cell-based; conditions: Kluyveromyces marxianus
# Experimental: as §1
# [4] = test system: Aspergillus fumigatus (2); assay: In vitro antifungal activity (MIC), agar dilution; type: cell-based
# Experimental: as §1
# [5] = test system: C. parapsilosis (clinica); assay: In vitro antifungal activity (MIC), agar dilution; type: cell-based; conditions: Lodderomyces parapsilosis
# Experimental: as §1
# Microsporum gypseum = assay: In vitro antifungal activity (MIC), agar dilution; type: cell-based; conditions: Nannizzia gypsea
# Experimental: as §1
# [6] = test system: T. mentagrophytes (clinica) (5); assay: In vitro antifungal activity (MIC), agar dilution; type: cell-based; conditions: Trichophyton mentagrophytes
# Experimental: as §1
# [7] = test system: Aspergillus fumigatus (1); assay: In vitro antifungal activity (MIC), agar dilution; type: cell-based
# Experimental: as §1
# C. albicans ATCC 28516 = assay: In vitro antifungal activity (MIC), agar dilution; type: cell-based; conditions: Candida albicans
# Experimental: as §1
# Pharmacokinetics = conditions: in words
# [8] = Liposolubility (log P octanol-water); type: physicochemical
# mice = conditions: mouse, in vivo
# Tolerance (DL50) in mice = conditions: mouse, in vivo
# [9] = test system: yeast and filamentous fungi; assay: Comparative antifungal tests of Examples 18 to 20; type: cell-based
# Experimental: as §1, with “Incubation was then allowed at 30° C. during 3 days (DST) or 2 days (Emmon's) for yeasts and 10 days for filamentous fungi.” left out
# The growth inhibition percentage of 5 different isolates on shake cultures was determined 24 h and 48 h after incubation at 28° C. […] The growth inhibition percentage was determined by spectrophotometry (450 nm). […]
# The antifungal activity of 1-[(2-fluorophenyl)(4-fluorophenyl)phenylmethyl]-1H-imidazole and bifonazole was determined by serial dilutions in Sabouraud gentamycin broth using microplates. […] MIC's were determined as in example 18. […]
# fungi (some species) = assay: Preliminary tests of antifungal activity; type: cell-based
# [10] = Emmon's Sabouraud dextrose agar
# [11] = Emmon's Sabouraud dextrose agar, read-out: MIC
compound,measurement,setting,value
"c1ccc(-c2ccc(C(c3ccccc3)n3ccnc3)cc2)cc1 (stereo not shown) [Bifonazole, 1-[(4-biphenyl)-phenylmethyl]-1H-imidazole, reference compound]",MIC,Aspergillus flavus; DST agar,10 µg/mL
same,MIC,Aspergillus flavus; [10],80 µg/mL
same,MIC,T. glabrata (clinica); DST agar,0.05 µg/mL
same,MIC,T. glabrata (clinica); [10],0.16 µg/mL
same,MIC,Aspergillus niger; DST agar,0.1 µg/mL
same,MIC,Aspergillus niger; [10],2.5 µg/mL
same,MIC,[1]; DST agar,0.5 µg/mL
same,MIC,[1]; [10],5 µg/mL
same,MIC,[2]; DST agar,10 µg/mL
same,MIC,[2]; [10],80 µg/mL
same,MIC,"[3]; ATCC28838, DST agar",0.05 µg/mL
same,MIC,"[3]; ATCC28838, Emmon's Sabouraud dextrose agar",1.25 µg/mL
same,MIC,[4]; DST agar,1 µg/mL
same,MIC,[4]; [10],1.25 µg/mL
same,MIC,[5]; DST agar,10 µg/mL
same,MIC,[5]; [10],20 µg/mL
same,MIC,Microsporum gypseum; DST agar,0.1 µg/mL
same,MIC,Microsporum gypseum; [10],0.63 µg/mL
same,MIC,[6]; DST agar,1 µg/mL
same,MIC,[6]; [10],5 µg/mL
same,MIC,[7]; DST agar,0.1 µg/mL
same,MIC,[7]; [10],0.31 µg/mL
same,MIC,"C. albicans ATCC 28516; ATCC28516, DST agar",2.5 µg/mL
same,MIC,"C. albicans ATCC 28516; ATCC28516, Emmon's Sabouraud dextrose agar",0.63 µg/mL
"Fc1ccc(C(c2ccccc2)(c2ccccc2F)n2ccnc2)cc1 (stereo not shown) [UR-4056, 1-[(2-fluorophenyl) (4-fluorophenyl)phenylmethyl]-1H-imidazole]",pharmacokinetics,Pharmacokinetics,appropiate pharmacokinetics
same,MIC,Aspergillus flavus; DST agar,1 µg/mL
same,MIC,Aspergillus flavus; [10],2.5 µg/mL
same,MIC,"T. glabrata (clinica); DST agar, read-out: MIC",0.05 µg/mL
same,MIC,T. glabrata (clinica); [11],0.31 µg/mL
same,MIC,Aspergillus niger; DST agar,0.25 µg/mL
same,MIC,Aspergillus niger; [10],2.5 µg/mL
same,MIC,"[1]; DST agar, read-out: MIC",0.1 µg/mL
same,MIC,[1]; [11],1.25 µg/mL
same,MIC,"[2]; DST agar, read-out: MIC",10 µg/mL
same,MIC,[2]; [11],40 µg/mL
same,MIC,"[3]; ATCC28838, DST agar, read-out: MIC",0.025 µg/mL
same,MIC,"[3]; ATCC28838, Emmon's Sabouraud dextrose agar, read-out: MIC",0.63 µg/mL
same,MIC,"[4]; DST agar, read-out: MIC",0.5 µg/mL
same,MIC,[4]; [11],1.25 µg/mL
same,MIC,"[5]; DST agar, read-out: MIC",0.5 µg/mL
same,MIC,[5]; [11],0.08 µg/mL
same,MIC,Microsporum gypseum; DST agar,0.5 µg/mL
same,MIC,Microsporum gypseum; [10],1.25 µg/mL
same,MIC,"[6]; DST agar, read-out: MIC",0.1 µg/mL
same,MIC,[6]; [11],1.25 µg/mL
same,MIC,"[7]; DST agar, read-out: MIC",0.5 µg/mL
same,MIC,[7]; [11],0.63 µg/mL
same,MIC,"C. albicans ATCC 28516; ATCC28516, DST agar, read-out: MIC",0.5 µg/mL
same,MIC,"C. albicans ATCC 28516; ATCC28516, Emmon's Sabouraud dextrose agar, read-out: MIC",0.04 µg/mL
same,liposolubility,[8]; in words,good liposolubility
same,logP,[8]; octanol-water,3.09
same,tolerance,mice,good tolerance
same,LD50,Tolerance (DL50) in mice,691 mg/kg
same,potency compared with bifonazole,[9],more potent than bifonazole in many instances
same,antifungal activity,fungi (some species),very good activity against some species

# Reference: patent publication US5149707A, “1-((2-fluorophenyl)(4-fluorophenyl)phenylmethyl)-1H-imidazole useful as antifungal agent” (J. Uriach & Cia, S.A., priority 1988, dated 1992)
